{"source": "paper PMC10477886", "about": "“Adamantaniline Derivatives Target ATP5B to Inhibit Translation of Hypoxia Inducible Factor‐1α” (Advanced Science, 2023)", "tested_on": "HIF‐1α protein level", "test": "western blot of HIF‐1α protein level in cells", "type": "cell-based, human", "procedure": "Cells were lysed with RIPA lysis (Epizyme, PC101) containing 1% cocktail protease inhibitors (MCE), and protein concentrations were determined by BCA kits (Beyotime, P0012S). Samples were denatured using DS‐PAGE Protein Staining and Loading Buffer (5×) (Beyotime, P0015L) followed by boiling for 10 min at 98 °C then the proteins were fractionated by 10% or 12.5% SDS‐PAGE and transferred to Cellulose Nitrate Membrane Filters (WHATMAN). After blocking in 5% non‐fat milk for 2 h at room temperature, the membrane was incubated overnight with specific antibodies at 4 °C, followed by horseradish peroxidase (HRP)‐linked anti‐mouse or anti‐rabbit secondary antibody (Cell Signaling Technology). Finally, An Immobilon Western Chemiluminescent HRP Substrate Kit (Merck Millipore) was used for protein bands detection. In addition, blots were probed with anti‐β‐actin (Merck, Darmstadt, Germany) antibody as the internal control.", "data": [{"smiles": "O=C(Nc1ccc(C23CC4CC(CC(C4)C2)C3)cc1)c1cccc(Cl)c1", "note": "[1‐3a, N‐(4‐((3r,5r,7r)‐Adamantan‐1‐yl)Phenyl)−3‐Chlorobenzamide]", "values": [{"measurement": "rate of HIF‐1α protein degradation", "setting": "10 µM with 100 µg mL^−1 CHX, hypoxia", "result": "did not have a significant effect on the rate of HIF‐1α protein degradation"}, {"measurement": "HIF‐1α protein expression", "setting": "ATP5A or ATP5B knocked down by shRNA, up to 30 µM", "result": "failed to decrease HIF‐1α protein expression"}, {"measurement": "HIF‐1α protein level", "setting": "hit confirmation, Figure S5", "result": "significantly reduced HIF‐1α protein level"}, {"measurement": "HIF‐1α protein level", "setting": "hypoxia", "result": "specifically reduced the protein level of HIF‐1α in a dose‐dependent manner"}]}]}
